Measured values as given in patent US20250064789A1, “KETOAMIDE DERIVATIVES AND PHARMACEUTICAL USES THEREOF” (priority 2022, published 2025).
Like-named read-outs stand apart in the source and are kept apart here.

Legend:
[1] = biological target: recombinant SARS-CoV-2 M^pro (Severe acute respiratory syndrome coronavirus 2 (2019-nCoV) (SARS-CoV-2), UniProt P0DTD1); experiment: Inhibition of SARS-CoV-2 M^pro enzyme activity (fluorescent substrate assay); type: biochemical; conditions: inhibition of SARS-CoV-2 M^pro enzyme activity, read-out: IC50
[2] = Cytotoxic assay against Vero E6 cells (MTT, 72 h); type: cell-based; conditions: African green monkey
Experimental: The cytotoxicity assessment of compounds was performed against Vero E6 cells. The specific experimental procedures: Vero E6 cells were seeded into a 96-well plate at a cell density of 2×10^4 cells/well, with 100 μL/well, and then incubated overnight at 37° C. in a 5% CO2 incubator. The next day, 100 μL of drug-containing medium was added to each well. The compound was diluted in a 2-fold serial dilution with a top concentration of […], for a total of 6 gradients. Three repeated wells were set for each concentration, and negative controls and blank controls without drugs were included for each experiment. […] All experimental data were analyzed using GraphPad Prism software.

[3] = male, Sprague-Dawley, rat, in vivo, iv, 1 mg/kg
in vivo = conditions: male, Sprague-Dawley, rat

| Compound | IC50 ([1]; values in nM) [nM] | AUC(0-inf) (in vivo; po, 10 mg/kg) [ng·h/mL] | AUC(0-t) (in vivo; po, 10 mg/kg) [ng·h/mL] | Cmax (in vivo; po, 10 mg/kg) [ng/mL] | MRT inf (in vivo; po, 10 mg/kg) [h] | Tmax (in vivo; po, 10 mg/kg) [h] | half-life (in vivo; po, 10 mg/kg) [h] | other results |
| --- | --- | --- | --- | --- | --- | --- | --- | --- |
| CC(C)(NC(=O)C1CCC(F)(F)CC1)C(=O)N[C@H](Cc1ccccc1)C(=O)C(=O)NCc1ccccn1 [Compound 172] | 14.9 ± 0.7 | – | – | – | – | – | – | CC50 at 72 h [2]: 341000 nM |
| C[C@@H](NC(=O)C1CCC(F)(F)CC1)C(=O)N[C@H](Cc1ccccc1)C(=O)C(=O)NCc1ccccn1 [Compound 317] | 16 ± 0.3 | – | – | – | – | – | – | CC50 at 72 h [2]: > 500000 nM |
| C[C@@H](NC(=O)N1CCC(F)(F)CC1)C(=O)N[C@H](Cc1ccccc1)C(=O)C(=O)NCc1ccccn1 [Compound 296, N—((R)-1-(((R)-3,4-dioxo-1-phenyl-4-((pyridin-2-ylmethyl)amino)butan-2-yl)amino)-1-oxopropan-2-yl)-4,4-difluoropiperidin-1-formamide] | 14.8 ± 0.1 | 5190 ± 1010 | 5180 ± 1010 | 1040 ± 209 | 4.43 ± 0.87 | 0.25 | 2.8 ± 0.09 | Vssobs [3]: 16.3 ± 2.68 L/kg; AUC(0-inf) (in vivo; iv, 1 mg/kg): 1040 ± 162 ng·h/mL; AUC(0-t) (in vivo; iv, 1 mg/kg): 1020 ± 156 ng·h/mL; Cmax (in vivo; iv, 1 mg/kg): 1400 ± 22.9 ng/mL; MRT inf (in vivo; iv, 1 mg/kg): 1.17 ± 0.44 h; Tmax (in vivo; iv, 1 mg/kg): 0.08 h; clearance (in vivo; iv, 1 mg/kg): 4.65 ± 3.87 mL/min/kg; half-life (in vivo; iv, 1 mg/kg): 3.55 ± 3.39 h; bioavailability (in vivo; po, 10 mg/kg): 50.6 ± 9.84% |
| O=C(NCc1ccccn1)C(=O)[C@@H](Cc1ccccc1)NC(=O)[C@H]1COCCN1C(=O)C1CCC(F)(F)CC1 [Compound 288] | 14.6 ± 0.4 | 3500 ± 1250 | 3490 ± 1250 | 1140 ± 207 | 3.59 ± 0.11 | 0.75 ± 0.43 | 3.03 ± 0.36 | – |
| O=C(NCc1ccccn1)C(=O)[C@@H](Cc1ccccc1)NC(=O)[C@H]1COCCN1C(=O)CC1CCC(F)(F)CC1 [Compound 289] | 10.6 ± 0.1 | 3250 ± 462 | 3240 ± 460 | 1040 ± 349 | 2.98 ± 0.33 | 0.5 | 3.28 ± 0.19 | CC50 at 72 h [2]: > 500000 nM |
| CC(C)(C(=O)NCC1CCC(F)(F)CC1)C(=O)N[C@H](Cc1ccccc1)C(=O)C(=O)NCc1ccccn1 [Compound 324, (R)—N^1-((4,4-difluorocyclohexyl)methyl)-N^3-(3,4-dioxo-1-phenyl-4-((pyridin-2-ylmethyl)amino)butan-2-yl)-2,2-dimethylmalonamide] | 9.6 ± 0.1 | – | – | – | – | – | – | CC50 at 72 h [2]: > 500000 nM |
| O=C(CCC1CCC(F)(F)CC1)NCC(=O)N[C@H](Cc1ccccc1)C(=O)C(=O)NCc1ccccn1 [Compound 153] | 12 ± 0.6 | 26000 ± 265 | 23500 ± 676 | 1980 ± 97.7 | 7.08 ± 0.25 | 1.67 ± 0.58 | 7.14 ± 0.46 | – |
| O=C(CNC(=O)C1CC12CCC(F)(F)CC2)N[C@H](Cc1ccccc1)C(=O)C(=O)NCc1ccccn1 (some centres unmarked) [Compound 333] | 13.4 ± 0.2 | 22400 ± 10800 | 18700 ± 9060 | 1590 ± 573 | 7.47 ± 0.38 | 0.92 ± 0.95 | 9.74 ± 0.38 | – |
| O=C(NCc1ccccn1)C(=O)[C@@H](Cc1ccccc1)NC(=O)[C@H]1COCCN1C(=O)[C@H](NC(=O)c1cnccn1)C1CCCCC1 [Compound 290] | 11.3 ± 0.2 | 3120 ± 894 | 3110 ± 894 | 722 ± 235 | 4.16 ± 0.3 | 0.5 | 2.66 ± 0.11 | – |
| C[C@@H](NC(=O)C1CCC(F)(F)CC1)C(=O)N[C@H](Cc1ccccc1)C(=O)C(=O)NCc1ccccn1 [Compound 145] | 17.1 ± 2.5 | 3850 ± 875 | 3830 ± 872 | 1170 ± 223 | 3.75 ± 0.56 | 0.33 ± 0.14 | 3.19 ± 0.06 | Vssobs [3]: 14.5 ± 2.62 L/kg; AUC(0-inf) (in vivo; iv, 1 mg/kg): 1180 ± 208 ng·h/mL; AUC(0-t) (in vivo; iv, 1 mg/kg): 1160 ± 205 ng·h/mL; Cmax (in vivo; iv, 1 mg/kg): 1640 ± 86.6 ng/mL; MRT inf (in vivo; iv, 1 mg/kg): 1.09 ± 0.13 h; Tmax (in vivo; iv, 1 mg/kg): 0.08 h; clearance (in vivo; iv, 1 mg/kg): 1.73 ± 0.37 mL/min/kg; half-life (in vivo; iv, 1 mg/kg): 1.37 ± 0.05 h; bioavailability (in vivo; po, 10 mg/kg): 32.9 ± 7.51% |
| CC(C)(NC(=O)c1cc(OC(F)(F)F)ccc1F)C(=O)N[C@H](Cc1ccccc1)C(=O)C(=O)NCc1ccccn1 [Compound 177] | 10.5 ± 0.2 | – | – | – | – | – | – | CC50 at 72 h [2]: 157000 nM |
| C[C@@H](OCc1ccccc1)C(=O)N[C@H](Cc1ccccc1)C(=O)C(=O)NCc1cnccn1 [Compound 27] | 885.8 ± 0.2 | – | – | – | – | – | – | – |
| C[C@@H](NC(=O)C1CC1c1ccccc1)C(=O)N[C@H](Cc1ccccc1)C(=O)C(=O)NCc1ccccn1 (some centres unmarked) [Compound 104] | 16.8 ± 1.1 | – | – | – | – | – | – | – |
| CC(C)(NC(=O)c1ccc(F)c(OC(F)(F)F)c1)C(=O)N[C@H](Cc1ccccc1)C(=O)C(=O)NCc1ccccn1 [Compound 184] | 13.3 ± 0.2 | – | – | – | – | – | – | – |
| O=C(NCc1ccccn1)C(=O)[C@@H](Cc1ccccc1)NC(=O)C1(NC(=O)C2CCC(F)(F)CC2)CC1 [Compound 159] | 21.5 ± 5.7 | – | – | – | – | – | – | – |
| O=C(NCc1nccs1)C(=O)[C@@H](Cc1ccccc1)NC(=O)c1ccccc1 [Compound 454] | – | – | – | – | – | – | – | IC50 ([1]; values given in μM): 1300 ± 70 nM |
| O=C(NCc1ccccn1)C(=O)[C@@H](Cc1ccccc1)NC(=O)[C@@H](CC1CCCCC1)NC(=O)C1CCC(F)(F)CC1 [Compound 220] | 13.9 ± 0.1 | – | – | – | – | – | – | – |
| CC(C)c1ccc(OCC(=O)N[C@H](C)C(=O)N[C@H](Cc2ccccc2)C(=O)C(=O)NCc2ccccn2)cc1 [Compound 68] | 12.4 ± 1.1 | – | – | – | – | – | – | – |
| COc1ccc(CCC(=O)N[C@H](C)C(=O)N[C@H](Cc2ccccc2)C(=O)C(=O)NCc2ccccn2)cc1 [Compound 67] | 17.3 ± 1.6 | – | – | – | – | – | – | – |
| C[C@@H](OCc1ccccc1)C(=O)N[C@H](Cc1ccccc1)C(=O)C(=O)NCc1ccncn1 [Compound 30] | – | – | – | – | – | – | – | IC50 ([1]; values given in μM): > 5000 nM |
| O=C(NCc1ccccn1)C(=O)[C@@H](Cc1ccccc1)NC(=O)[C@@H]1[C@H]2CC[C@H](C2)N1C(=O)C1CCC(F)(F)CC1 [Compound 270] | – | – | – | – | – | – | – | IC50 ([1]; values given in μM): > 2500 nM |
